Measured values taken from article PMC4493460, “Increasing the Biological Stability Profile of a New Chemical Entity, UPEI-104, and Potential Use as a Neuroprotectant Against Reperfusion-Injury” (Brain Sciences, 2015).
“Also recorded” adds a separate entry of the source. Like-named read-outs stand apart in the source and are kept apart here.

How the values were obtained:
[1] = set-up: method as in PMID 21172313; settings: cited from earlier work
[2] = Stability in human plasma (Cerep, HPLC-MS/MS); assay type: in vitro ADME; settings: 1.0E−06 M, 37 °C; for half-life at 1 µM: human, plasma, 0-120 min
Procedure: The detection method was HPLC-MS/MS. At the end of incubation at each of the time points, acetonitrile was added to the incubation mixture followed by centrifugation. Samples were analyzed by HPLC-MS/MS and peak areas were recorded for each analyte. The area of precursor compound remaining after each of the time points relative to the amount remaining at time zero, expressed as percent, was calculated. […] Further experimental detail may be found in [30].
Further experimental detail may be found in [32].

[3] = test system: infarct volume following tMCAO; set-up: method as in PMID 22277933; settings: cited from earlier work
[4] = set-up: method as in PMID 22277933; settings: animals injected i.v.; immediately, as early as 1 min after injection; previous work; cited from earlier work
[5] = test system: NADPH oxidase; set-up: method as in PMID 22277933, PMID 18511205; settings: compared with apocynin alone; cited from earlier work
[6] = in vitro; settings: for microsomal CLint at 100 nM / % Compound Remaining, 1st / % Compound Remaining, 2nd / % Compound Remaining, Mean / half-life at 100 nM: human, microsomes; for % Compound Remaining, 1st / % Compound Remaining, 2nd / % Compound Remaining, Mean: 100 nM
Procedure: Briefly, incubation was performed at 37 °C for times between 0 and 60 min as indicated. The detection method was HPLC-MS/MS. Intrinsic clearance from microsomes (S9, cryopreserved hepatocytes, recombinant CYP, recombinant UGT) was assayed. Metabolic stability, expressed as percent of the parent compound remaining, was calculated by comparing the peak area of the compound at the time point relative to that at time 0. The half-life (T1/2) was estimated from the slope of the initial linear range of the logarithmic curve of compound remaining (%) vs. time, assuming the first-order kinetics.
A solution of each test compound (1000 ng/mL or 10 μM) was prepared as described above and infused into the TSQ Quantum source via syringe pump at a constant rate. Full scan MS analysis was conducted and total ion current chromatograms and corresponding mass spectra were generated for each test compound in both positive and negative ionization modes. The precursor ions for MS/MS were selected from either the positive or the negative mass spectrum, as a function of the respective ion abundance. In addition, product ion MS/MS analysis was performed in order to determine the appropriate selected fragmentation reaction for use in quantitative analysis. The final reaction monitoring parameters were chosen to maximize the ability to quantify the test compound when present within a complex mixture of components. Following identification of the specific SRM transition to be used for each test compound, the detection parameters were optimized using the automated protocol in the TSQ Quantum Compound Optimization Workspace software package (Thermo Scientific, MA, USA). Finally, the chromatographic conditions to be used for LC-MS analysis were identified by injection and separation of the analyte on a suitable LC column and adjustment of the gradient conditions as necessary. Further experimental detail may be found in [32].
Mobile Phase B: 6 mM ammonium formate/3 mM formic acid in water/acetonitryl (ACN; 1/9, v/v). Column: Hypersil GOLD DASH HTS, 2.1 × 20 mm, 3 micron (Thermo Scientific, MA, USA; see Table 1 for details).

[7] = test system: infarct volume following tMCAO; experiment: Transient middle cerebral artery occlusion (tMCAO) ischemia-reperfusion injury, infarct volume by TTC staining; assay type: in vivo, Sprague-Dawley rats; settings: rats, 30 min occlusion, 5.5 h reperfusion
Procedure: All surgical procedures described below were approved by the University of Prince Edward Island Animal Care Committee and were in compliance with the requirements of the Canadian Council on Animal Care. Our surgical protocol has been described previously. Briefly, rats were anaesthetized with sodium thiobutabarbital (Inactin, Sigma Aldrich, St. Louis, MO, USA; 100 mg/kg, intraperitoneal; i.p.) and kept warm on a heating pad maintained at 37 ± 1 °C. A venous cannula was inserted into the right femoral vein to allow for all drug injections and supplemental anaesthesia, if required. Rats were then transferred to a stereotaxic frame to allow for surgical access to the right middle cerebral artery (MCA). As detailed in our previous publication, we used a 3-point occlusion of the MCA by inserting suture under the vessel and applying pressure, by gently lifting the sutures, to occlude flow by 100% (as confirmed by laser Doppler flowmetry). The period of occlusion lasted for 30 min, followed by a 5.5 h period of reperfusion, which was accomplished by removal of these sutures (transient ischemia model, tMCAO). […] Sections were then scanned (both sides) the next day, and infarct area was measured using imaging software (Image J; Scion Corporation, Frederick, MD, USA). […] Data was analyzed by an investigator blinded to the treatment groups. […]

[8] = test system: infarct volume, MCAO; set-up: method as in PMID 1299626, PMID 19417757, PMID 21946070, PMID 19175604, PMID 17697529; settings: cited from earlier work
[9] = test system: global ischemia; set-up: method as in PMID 16650838; settings: gerbils, given 5 min following 5 min of global ischemia, assessed four days later; cited from earlier work

O=C(O)CCCCC1CCSS1 (stereo not drawn) [LA, α-Lipoic acid]
Neuroprotection ([1]; 5 mg/kg (most effective dose), administered just prior to the beginning of reperfusion): did not result in significant neuroprotection
Neuroprotection ([1]; 5 mg/kg, administered prior to both occlusion and reperfusion): produced neuroprotection

CC(C)[N+](C)(CCOC(=O)C1c2ccccc2Oc2ccccc21)C(C)C [Propantheline, reference compound]
half-life at 1 µM ([2]; read-out: Half-Life, 1st): 7.2 min
half-life at 1 µM ([2]; read-out: Half-Life, 2nd): 7.2 min
half-life at 1 µM ([2]; read-out: Half-Life, Mean): 7 min

CCCOc1cc(N)ccc1C(=O)OCCN(CC)CC [Propoxycaine, reference compound]
half-life at 1 µM ([2]; read-out: Half-Life, 1st): < 30 min
half-life at 1 µM ([2]; read-out: Half-Life, 2nd): < 30 min
half-life at 1 µM ([2]; read-out: Half-Life, Mean): < 30 min

COc1cc(C(C)=O)ccc1OC(=O)CCCCC1CCSS1 (centres unmarked) [UPEI-100]
% Compound Remaining, 1st ([2]; incubation 0 min): 100.0%
% Compound Remaining, 2nd ([2]; incubation 0 min): 100.0%
% Compound Remaining, Mean ([2]; incubation 0 min): 100%
% Compound Remaining, 1st ([2]; incubation 30 min): 92.7%
% Compound Remaining, 2nd ([2]; incubation 30 min): 126.6%
% Compound Remaining, Mean ([2]; incubation 30 min): 110%
% Compound Remaining, 1st ([2]; incubation 60 min): 100.7%
% Compound Remaining, 2nd ([2]; incubation 60 min): 116.0%
% Compound Remaining, Mean ([2]; incubation 60 min): 108%
% Compound Remaining, 1st ([2]; incubation 90 min): 99.5%
% Compound Remaining, 2nd ([2]; incubation 90 min): 111.2%
% Compound Remaining, Mean ([2]; incubation 90 min): 105%
% Compound Remaining, 1st ([2]; incubation 120 min): 109.9%
% Compound Remaining, 2nd ([2]; incubation 120 min): 140.1%
% Compound Remaining, Mean ([2]; incubation 120 min): 125%
half-life at 1 µM ([2]; read-out: Half-Life, 1st): > 120 min
half-life at 1 µM ([2]; read-out: Half-Life, 2nd): > 120 min
half-life at 1 µM ([2]; read-out: Half-Life, Mean): > 120 min
Dose at which infarct volume was reduced ([3]; same in vivo model of reperfusion-injury, previously observed): 0.1 mg/kg
Dose for equivalent neuroprotection compared to each parent compound (lipoic acid, apocynin), fold lower ([3]; tMCAO, previous work): 100 fold
Detection in tissue samples / central nervous system following intravenous injection [4]: undetectable; also recorded: unable to detect; also recorded: could not be detected
Inhibition of NADPH oxidase [5]: inhibited NADPH oxidase
Flags (detection of test compound in the assay matrix) [6]: not detected in the assay at any time point
microsomal CLint at 100 nM [6]: 6030 µL/min/mg
% Compound Remaining, 1st ([6]; 0 h): 100.0%
% Compound Remaining, 2nd ([6]; 0 h): 100.0%
% Compound Remaining, Mean ([6]; 0 h): 100%
% Compound Remaining, 1st ([6]; 0.25 h): 0.0%
% Compound Remaining, 2nd ([6]; 0.25 h): 0.0%
% Compound Remaining, Mean ([6]; 0.25 h): 0%
% Compound Remaining, 1st ([6]; 0.5 h): 0.0%
% Compound Remaining, 2nd ([6]; 0.5 h): 0.0%
% Compound Remaining, Mean ([6]; 0.5 h): 0%
% Compound Remaining, 1st ([6]; 0.75 h): 0.0%
% Compound Remaining, 2nd ([6]; 0.75 h): 0.0%
% Compound Remaining, Mean ([6]; 0.75 h): 0%
% Compound Remaining, 1st ([6]; 1 h): 0.0%
% Compound Remaining, 2nd ([6]; 1 h): 0.0%
% Compound Remaining, Mean ([6]; 1 h): 0%
half-life at 100 nM ([6]; 1st): 1.1 min
half-life at 100 nM ([6]; 2nd): < 15 min
half-life at 100 nM ([6]; Mean): ~1 min

COc1cc(C(C)=O)ccc1OCCCCCC1CCSS1 (centres unmarked) [UPEI-104]
% Compound Remaining, 1st ([2]; incubation 0 min): 100.0%
% Compound Remaining, 2nd ([2]; incubation 0 min): 100.0%
% Compound Remaining, Mean ([2]; incubation 0 min): 100%
% Compound Remaining, 1st ([2]; incubation 30 min): 89.3%
% Compound Remaining, 2nd ([2]; incubation 30 min): 112.0%
% Compound Remaining, Mean ([2]; incubation 30 min): 101%
% Compound Remaining, 1st ([2]; incubation 60 min): 95.5%
% Compound Remaining, 2nd ([2]; incubation 60 min): 98.6%
% Compound Remaining, Mean ([2]; incubation 60 min): 97%
% Compound Remaining, 1st ([2]; incubation 90 min): 82.9%
% Compound Remaining, 2nd ([2]; incubation 90 min): 76.4%
% Compound Remaining, Mean ([2]; incubation 90 min): 80%
% Compound Remaining, 1st ([2]; incubation 120 min): 77.2%
% Compound Remaining, 2nd ([2]; incubation 120 min): 90.1%
% Compound Remaining, Mean ([2]; incubation 120 min): 84%
half-life at 1 µM ([2]; read-out: Half-Life, 1st): 352 min
half-life at 1 µM ([2]; read-out: Half-Life, 2nd): 351 min
half-life at 1 µM ([2]; read-out: Half-Life, Mean): > 120 min
Infarct volume vs vehicle group ([7]; 0.1 mg/kg i.v. 30 min prior to MCA occlusion, p < 0.05): significantly lower
Effect on infarct volume as a function of dose ([7]; 0.001–0.1 mg/kg i.v. 30 min prior to MCA occlusion): dose-dependent reduction in infarct volume
microsomal CLint at 100 nM [6]: 963 µL/min/mg
half-life at 100 nM ([6]; 1st): 7.3 min
half-life at 100 nM ([6]; 2nd): 7.1 min
half-life at 100 nM ([6]; Mean): ~7 min

COc1cc(C(C)=O)ccc1O [apocynin, 4-hydroxy-3-methoxyacetophenone]
Infarct volume ([8]; administered during occlusion of the middle cerebral artery): attenuation of infarct volume
Infarct volume benefit ([8]; administration delayed following the onset of reperfusion): benefits were lost
Neuronal degeneration, neuronal death and microglial activation [9]: decreased neuronal degeneration and delayed neuronal death and microglial activation
